Measurements reported in patent US10189853B2, “Conformationally restricted 4-substituted-2,6-dimethylfuro[2,3-d]pyrimidines as anti-tumor agents” (DUQUESNE UNIVERSITY OF THE HOLY SPIRIT, priority 2014, dated 2019).

Experiments:
HOP-92 = assay: NCI 60 cell line panel; type: cell-based; details: Homo sapiens, NSCLC
SR = assay: NCI 60 cell line panel; type: cell-based; details: Homo sapiens, Leukemia
EGFR = EGFR (Homo sapiens (Human), UniProt P00533); assay: EGFR kinase inhibition, phosphotyrosine ELISA cytoblot; type: cell-based; details: A431 cells
Experimental: (§1) Cells used were tumor cell lines naturally expressing high levels of EGFR (A431), VEGFR-2 (U251), and PDGFR-β (SH-SYSY). […] The reaction was stopped and cells were permeabilized by quickly removing the media from the cells and adding ice-cold Tris-buffered saline (TBS) containing 0.05% Triton X-100, protease inhibitor cocktail and tyrosine phosphatase inhibitor cocktail. The TBS solution was then removed and cells fixed to the plate for 30 min at 60° C. and further incubation in 70% ethanol for an additional 30 min. Cells were further exposed to block (TBS with 1% BSA) for 1 h, washed, and then a horseradish peroxidase (HRP)-conjugated phosphotyrosine (PY) antibody was added overnight.

HCC-2998 = assay: NCI 60 cell line panel; type: cell-based; details: Homo sapiens, Colon Cancer
MOLT-4 = assay: NCI 60 cell line panel; type: cell-based; details: Homo sapiens, Leukemia
[1] = system: cellular microtubules in A-10 cells; assay: Microtubule depolymerization, indirect immunofluorescence; type: cell-based; details: for effect on cellular microtubules: in words
Experimental: Evaluation of microtubule inhibition was performed using previously described methods.^22 Indirect immunofluorescence was used to evaluate the effects of the compounds on cellular microtubules as described previously.^38 Briefly, A-10 cells were treated for 18 h with vehicle (DMSO) or a compound, and microtubule effects were evaluated microscopically using β-tubulin antibody. The EC50 was calculated from 3 independent experiments and expressed as the mean±SD.

OVCAR-4 = assay: NCI 60 cell line panel; type: cell-based; details: Homo sapiens, Ovarian cancer
[2] = system: M6/6 cells (SK-OV-3 expressing Pgp); assay: Antiproliferative SRB assay; details: M6/6 (Pgp) vs SKOV3
NCI-H522 = assay: NCI 60 cell line panel; type: cell-based; details: Homo sapiens, NSCLC
MDA-MB-468 = assay: NCI 60 cell line panel; type: cell-based; details: Homo sapiens, Breast Cancer
PDGFR-β = PDGFR-β (Homo sapiens (Human), UniProt P09619); assay: PDGFR-β kinase inhibition, phosphotyrosine ELISA cytoblot; type: cell-based
Experimental: as §1

IGROV1 = assay: NCI 60 cell line panel; type: cell-based; details: Homo sapiens, IGROV-1, Ovarian cancer
MALME-3M = assay: NCI 60 cell line panel; type: cell-based; details: Homo sapiens, Melanoma
SK-MEL-28 = assay: NCI 60 cell line panel; type: cell-based; details: Homo sapiens, Melanoma
RPMI-8226 = assay: NCI 60 cell line panel; type: cell-based; details: Homo sapiens, Leukemia
A549/ATCC = assay: NCI 60 cell line panel; type: cell-based; details: Homo sapiens, NSCLC
NCI-H322M = assay: NCI 60 cell line panel; type: cell-based; details: Homo sapiens, NSCLC
[3] = system: colchicine site on tubulin; assay: Inhibition of [3H]colchicine binding
A498 = assay: NCI 60 cell line panel; type: cell-based; details: Homo sapiens, Renal Cancer

Chain of PDGFR-β (P09619 33-1106): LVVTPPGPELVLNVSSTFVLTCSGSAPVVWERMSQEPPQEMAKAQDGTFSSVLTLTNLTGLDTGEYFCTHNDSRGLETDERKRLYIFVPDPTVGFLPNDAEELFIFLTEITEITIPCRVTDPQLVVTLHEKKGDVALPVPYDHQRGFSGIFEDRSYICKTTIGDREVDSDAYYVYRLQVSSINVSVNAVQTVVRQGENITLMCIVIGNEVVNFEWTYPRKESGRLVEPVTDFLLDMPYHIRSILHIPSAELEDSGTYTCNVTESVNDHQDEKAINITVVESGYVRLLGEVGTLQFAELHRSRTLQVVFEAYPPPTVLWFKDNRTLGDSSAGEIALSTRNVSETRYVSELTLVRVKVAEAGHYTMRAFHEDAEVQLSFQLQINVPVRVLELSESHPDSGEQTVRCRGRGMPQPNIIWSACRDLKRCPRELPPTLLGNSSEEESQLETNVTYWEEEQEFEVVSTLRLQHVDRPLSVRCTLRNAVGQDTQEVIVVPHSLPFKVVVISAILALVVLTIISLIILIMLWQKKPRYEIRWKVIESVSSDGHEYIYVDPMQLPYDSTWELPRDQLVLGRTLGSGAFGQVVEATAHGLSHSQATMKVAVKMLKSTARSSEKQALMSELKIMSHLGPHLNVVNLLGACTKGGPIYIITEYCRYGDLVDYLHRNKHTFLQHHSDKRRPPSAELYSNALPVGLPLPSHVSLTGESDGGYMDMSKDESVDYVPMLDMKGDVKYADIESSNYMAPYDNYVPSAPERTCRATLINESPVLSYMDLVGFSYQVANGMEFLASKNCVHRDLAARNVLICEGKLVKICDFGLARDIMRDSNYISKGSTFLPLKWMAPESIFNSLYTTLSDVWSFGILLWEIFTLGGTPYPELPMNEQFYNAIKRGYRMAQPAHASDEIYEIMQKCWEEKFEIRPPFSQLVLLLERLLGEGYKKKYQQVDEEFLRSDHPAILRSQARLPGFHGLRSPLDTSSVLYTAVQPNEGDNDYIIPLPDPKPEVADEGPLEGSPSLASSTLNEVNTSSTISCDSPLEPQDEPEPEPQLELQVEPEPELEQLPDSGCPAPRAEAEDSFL
Chain of EGFR (P00533 25-1210): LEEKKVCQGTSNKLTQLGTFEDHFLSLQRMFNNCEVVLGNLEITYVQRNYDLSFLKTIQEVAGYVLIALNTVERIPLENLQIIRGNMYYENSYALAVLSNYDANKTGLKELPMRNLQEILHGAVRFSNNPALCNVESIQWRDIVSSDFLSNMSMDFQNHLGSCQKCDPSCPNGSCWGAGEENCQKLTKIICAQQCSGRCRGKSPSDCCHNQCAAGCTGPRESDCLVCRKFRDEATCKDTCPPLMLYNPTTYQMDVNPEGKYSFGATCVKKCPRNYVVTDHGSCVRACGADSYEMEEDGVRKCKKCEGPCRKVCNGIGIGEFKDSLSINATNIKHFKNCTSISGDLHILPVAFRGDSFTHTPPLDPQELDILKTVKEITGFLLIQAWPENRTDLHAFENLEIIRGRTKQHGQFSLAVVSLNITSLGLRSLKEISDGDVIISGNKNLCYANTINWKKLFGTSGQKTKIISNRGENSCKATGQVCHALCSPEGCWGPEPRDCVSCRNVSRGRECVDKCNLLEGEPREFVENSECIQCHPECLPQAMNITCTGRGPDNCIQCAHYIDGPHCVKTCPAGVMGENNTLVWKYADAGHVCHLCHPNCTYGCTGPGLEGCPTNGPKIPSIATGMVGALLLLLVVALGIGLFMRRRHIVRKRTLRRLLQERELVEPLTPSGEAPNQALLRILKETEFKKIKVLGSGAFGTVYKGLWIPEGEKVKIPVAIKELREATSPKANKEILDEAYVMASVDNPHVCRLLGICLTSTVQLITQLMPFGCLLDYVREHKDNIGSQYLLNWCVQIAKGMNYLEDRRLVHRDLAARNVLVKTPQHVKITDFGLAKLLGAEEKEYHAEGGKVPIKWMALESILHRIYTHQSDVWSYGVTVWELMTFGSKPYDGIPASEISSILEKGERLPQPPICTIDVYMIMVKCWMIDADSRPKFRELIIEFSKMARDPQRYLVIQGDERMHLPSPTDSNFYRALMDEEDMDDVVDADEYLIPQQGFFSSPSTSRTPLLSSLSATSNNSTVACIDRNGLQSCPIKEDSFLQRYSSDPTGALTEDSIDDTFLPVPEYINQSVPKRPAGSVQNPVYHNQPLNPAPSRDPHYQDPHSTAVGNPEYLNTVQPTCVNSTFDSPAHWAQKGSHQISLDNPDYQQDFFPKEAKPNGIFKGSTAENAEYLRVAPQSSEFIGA

SMILES	GI50 (HOP-92) [µM]	IC50 (EGFR) [µM]	GI50 (HCC-2998) [µM]	GI50 (MOLT-4) [µM]	effect on cellular microtubules [1]	GI50 (OVCAR-4) [µM]	GI50 (NCI-H522) [µM]	GI50 (MDA-MB-468) [µM]	GI50 (IGROV1) [µM]	also measured
Cc1nc(N(C)c2ccc3occc3c2)c2cc(C)oc2n1 [Compound 7, N-1-benzofuran-5-yl-N,2,6-trimethylfuro[2,3-d]pyrimidin-4-amine]	0.226	0.307 ± 0.0421	0.185	0.211	dose-dependent loss of cellular microtubules	0.553	0.0299	0.0315	0.142	GI50 (SR): 0.0624 µM; EC50/IC50 ratio ([1]; EC50 MT depolymerization / IC50 MDA-435): 28; Rr value (relative resistance) [2]: 1.2; IC50 (PDGFR-β; SH-SY5Y cells, phosphotyrosine ELISA): 0.025 ± 0.0048 µM; fold better than sunitinib, PDGFR-β (PDGFR-β; vs sunitinib): about 4 fold
COc1ccc2c(c1)CCCN2c1nc(C)nc2oc(C)cc12 [Compound 10, 4-(6-methoxy-3,4-dihydroquinolin-1(2H)-yl)-2,6-dimethylfuro[2,3-d]pyrimidine]	0.0586	0.0034 ± 0.0008	0.012	0.015	dose-dependent loss of cellular microtubules	0.051	< 0.01	< 0.01	< 0.01	GI50 (MALME-3M): < 0.01 µM; GI50 (SK-MEL-28): < 0.01 µM; GI50 (RPMI-8226): < 0.01 µM; GI50 (A549/ATCC): < 0.01 µM; EC50 ([1]; A-10 cells, 18 h, read-out: EC50 for MT depolymerization in A-10 cells): 0.021 µM; GI50 (NCI-H322M): < 0.01 µM; Inhibition of colchicine binding % inhibition ± SD ([3]; 1 μM): 82 ± 3%; Inhibition of colchicine binding % inhibition ± SD ([3]; 5 μM): 96 ± 1%; GI50 (A498): < 0.01 µM
